These are literature values, as cited in PMC6182381, “Population Pharmacokinetics and Exposure-Response Relationships of Naldemedine” (Pharmaceutical Research, 2018).

Details of this data set: method as in earlier work. The note with it: cited from earlier work.

Turning to `N=C(N)c1ccccc1` [Benzamidine], the “metabolite excreted in feces” value is ~20 % of the administered dose of naldemedine and the “metabolite excreted in urine” value is recorded as “approximately 32 % of the administered dose of naldemedine”.
